Results on five compounds are retold here after patent US20010035503A1, “Method and apparatus for non-invasive detection of angiogenic and anti-angiogenic activity in living tissue” (priority 2000, published 2001).

For assay [1], the system named is C3H murine mammary carcinoma. Nature of the assay: anti-vascular effects by combined LDF and NIRS measurements in mice with tumor transplants. The settings on record: for LDF: difference between post- and pre-treatment as percent of pre-treatment value; for LDF / NIRS* / pO2 after treatment % < 5 mm Hg: median, N = 3; for LDF / NIRS* / pO2 after treatment median / pO2 after treatment % < 5 mm Hg: i.p.: FAA 150, CA4B 250, DMX-AA 20, HDZ 5 mg/kg; for tumor blood perfusion estimated by LDF / hemoglobin concentration: in words; for hemoglobin concentration: from NIRS; for NIRS*: reflectance (1/absorbance), increase = decrease in hemoglobin concentration, post- minus pre-treatment as percent of pre-treatment; for pO2 after treatment median: tumor pO2, N = 3; for pO2 after treatment % < 5 mm Hg: tumor pO2 values below 5 mm Hg. It is filed as in vivo. Here is the method:
Anti-vascular effects on C3H murine mammary carcinoma were determined by combined LDF and NIRS measurements, in mice with tumor transplants using the apparatus shown in FIG. 9.
The three agents DMX-AA, FAA and CA4B are antivascular agents, which by various mechanisms cause collapse of tumor vasculature and consequently a decrease in tumor blood flow and oxygenation. Hydralazine (HDZ) is a well known anti-hypertensive agent that causes peripheral vasodilatation, i.e. a drop in vascular flow resistance leading to an acute decrease in tumor perfusion (a.k.a. the “steal effect”), because of the lack of autoregulation of tumor vessels. Numbers in the table represent differences between post-and pre-treatment measurements expressed as percent of the pre-treatment value. Number of experiments per drug=3.

The test system of assay [2] is bFGF induced angiogenic response. Nature of the assay: anti-angiogenic activity in bFGF stimulated animals, LDF and NIRS recordings. It is filed as in vivo, mouse. On the procedure:
(§1) The apparatus as shown on FIG. 9 was tested in a mouse model with a controlled angiogenic response induced by local application of an angiogenic agent, basic fibroblast growth factor (bFGF). Parallel experiments were performed with identical setup in order to correlate the sensitivity of near infrared spectroscopy (NIRS) compared to laser doppler flowmetry (LDF) for estimation of angiogenic and anti-angiogenic responses.
(§2) A slow release pellet (Innovative Res.) containing 100 micrograms of bFGF released at a constant rate over 10 days was implanted under the skin at three different locations in the mouse. The angiogenic response to the active substance was evaluated in comparison with placebo pellets. […] Median values and interquartile range is shown.
The ability to detect anti-angiogenic properties of therapeutic agents in these preparations was tested in the same technical settings by comparing treated versus untreated animals.
FIGS. 3A and 3B show the anti-angiogenic activity after treatment with TNP-470 (7 mg/kg q.d.x7, n=13). […] LDF recordings were performed on day 6, whereas NIRS recordings were performed on day 7 after implantation. Median values and interquartile range is shown.

The test system of another assay is U87 and MLL tumor lines. Nature of the assay: tumor growth, NIRS recordings and Chalkley counts during continuous anti-angiogenic treatment. It is filed as in vivo, nude mice. The text has this:
The relationship between non-invasive measures of tumor hemoglobin concentration by NIRS and estimates of vessel density by Chalkley counts was examined in seven tumor lines (gliomas: U87, U118, U373; Small Cell Lung Cancer (SCLC): 54A, 54B, DMS79; rat prostate cancer: MLL) on the hind leg of nude mice. Chalkley counts were obtained from CD31 immunostained cryosections. The NIRS absorbance increased with the tumor size until a tumor line specific plateau was reached from tumor sizes of 100-150 mm^3.
We also evaluated the correlation between tumor size and NIRS recordings during untreated growth for all seven tumor lines, and during continuous anti-angiogenic treatment with TNP-470 for two tumor lines, U87 and MLL.

Another assay deals with angiogenic response. Put plainly: angiogenic response to bFGF slow release pellet implanted under the skin, LDF and NIRS recordings. Format: in vivo, mouse. The settings on record: pellet with 100 micrograms bFGF vs placebo pellets, p<0.05 vs placebo, p<0.001 vs controls. On the procedure:
as §1, §2

The mark [3] stands for this setting: treated vs untreated tumors of similar size, U87 and MLL.

As for `O=C(O)Cc1cccc2c(=O)cc(-c3ccccc3)oc12` [FAA], in assay [1], the LDF is given as −34%, the “tumor blood perfusion estimated by LDF” value is given as “decrease in perfusion”, the hemoglobin concentration result is listed as “unchanged hemoglobin concentration” and the “NIRS*” value is “+6%”. Besides, in assay [1], the “pO2 after treatment median” value is 1.5 and the “pO2 after treatment % < 5 mm Hg” value is 69%.
Take `NNc1nncc2ccccc12` [HDZ, Hydralazine]: in assay [1], the LDF is recorded as −93%, the “NIRS*” value is reported as “+36%”, the “pO2 after treatment median” value is given as 1.9 and the “pO2 after treatment % < 5 mm Hg” value is 85%.
`Cc1ccc2c(=O)c3cccc(CC(=O)O)c3oc2c1C` [DMX-AA]: in assay [1], the LDF is listed as −74%, the “tumor blood perfusion estimated by LDF” value is on record as “decrease in perfusion”, the hemoglobin concentration entry is reported as “unchanged hemoglobin concentration” and the “NIRS*” value was “+1%”. In assay [1], the “pO2 after treatment median” value is recorded as 2.8 and the “pO2 after treatment % < 5 mm Hg” value came to 66%.
With `CO[C@@H]1[C@H](OC(=O)NC(=O)CCl)CC[C@]2(CO2)[C@H]1[C@@]1(C)O[C@@H]1CC=C(C)C` [TNP-470], the LDF recordings entry in assay [2] (compared to untreated bFGF stimulated animals, day 6, TNP-470 7 mg/kg q.d.x7 (p<0.05), dexamethasone 10 mg/kg q.d.x7 (p<0.001)) is given as “significantly lower”. Further, the NIRS recordings result in assay [2] (compared to untreated bFGF stimulated animals, day 7, TNP-470 7 mg/kg q.d.x7 (p<0.05), dexamethasone 10 mg/kg q.d.x7 (p<0.001)) was “significantly lower”. The anti-angiogenic activity entry in assay [2] (treated versus untreated animals) is listed as “Significant anti-angiogenic activity”. Also, the “onset of tumor growth and the growth rate” value in the assay with U87 and MLL tumor lines (continuous treatment, U87 and MLL tumors) is given as “significantly retarded”. Further, in the assay with U87 and MLL tumor lines (setting [3]), the Chalkley counts entry is “significantly lower” and the “final NIRS recordings” value is listed as “significantly lower”.
Take basic fibroblast growth factor [bFGF]: the LDF recordings entry with angiogenic response (day 6 after implantation) is “significantly higher than placebo”. Further, the NIRS recordings result in the assay with angiogenic response (day 7 after implantation) is recorded as “significantly higher than placebo”.
